Test results as given in patent US20240391931A1 (Bristol-Myers Squibb Company, priority 2021, published 2024).

Target: HER2YVMA (Homo sapiens, UniProt P04626, INS775YVMA)
Test: HER2 signaling (pHER2) in Hek293-HER2YVMA cells
Format: cell-based
Parameters: expressed in transfected cells; host or cells: HEK293 (pool), Ba/F3 (clones), BEAS2B (clones); lentiviral vector pCDH-CMV-MCS-EF1-Neo
Settings: 1.5 hr compound, 1% FBS, read-out: HEKYVMA pHER2 EC50
Procedure: Cell culture, plasmid cloning, and lentiviral transduction were carried out according to standard procedures. The Human HER2 cDNA construct in pCMV6-Entry for the HER2 wildtype (WT) expression was obtained from Origene. The HER2 cDNA including the 12-nucleotide insertion corresponding to YVMA insertion (HER2YVMA) was codon optimized, synthesized and cloned by GenScript (Piscataway, NJ) in pcDNA3.1. The lentiviral constructs expressing HER2YVMA and HER2 WT were sub-cloned using PCR at System Biosciences (SBI, Mountainview, CA) into lentiviral vectors pCDH-CMV-MCS-EF1-Neo and lentiviral particles were generated.
Engineered lines expressing HER2YVMA and HER2 WT were prepared in HEK293 (human embryonic kidney cells), Ba/F3 (Interleukin 3 (IL3)-dependent murine pro B cell line), and BEAS2B (primary immortalized human bronchial epithelial cell line). Ba/F3, BEAS2B, and HEK293 cells were obtained from the American Type Culture Collection (ATCC, Manassas, VA). Parental Ba/F3 cells were grown in suspension in complete RPMI 1640 supplemented with 10% FBS and 1% P/S and 10 ng/ml interleukin 3 (IL3, Sigma-Aldrich). Hek293 and BEAS2B cells were grown as monolayers in DMEM supplemented with 10% FBS and 1% P/S. All cells were maintained and propagated in a humidified 5% CO2 incubator at 37° C.
To generate Ba/F3, BEAS2B, and Hek-293 cells engineered with lentivirus to express HER2 WT or HER2YVMA, the cells were transduced with lentiviruses at multiplicity of infection (MOI) of 1 or 10; transduced cells were selected and maintained with G418 ([…]) (Geneticin, Life Technologies, Carlsbad, CA). Ba/F3 engineered cells were subjected to gradual withdrawal of interleukin 3 (IL-3, Sigma-Aldrich). After selection, IL3 independent Ba/F3 HER2YVMA, and BEAS2B HER2YVMA cells were cloned by limiting dilution. Hek293 HER2YVMA cells were used as pool. HER2 and phospho HER2 levels were confirmed by flow cytometery and immunoassay (MSD, Meso-Scale Discovery, Rockville, Maryland).
HER2 signaling was assessed in BT474 and N87 cell lines which endogenously overexpress the HER2 wildtype (WT) protein, in NCI-H1781 cells which endogenously expresses a HER2 mutant protein containing a VC insertion in the kinase domain (HER2VC or G776delinsVC), and in engineered cell lines transduced to express the Her2 mutant protein containing the YVMA insertion (Hek293-HER2YVMA and BEAS2B-HER2YVMA).
BT474, N87, and NCI-H1781 were plated in 96-well tissue-culture treated plates (Corning Costar, Sigma-Aldrich) in full media and incubated overnight. Hek293-HER2YVMA and BEAS2B-HER2YVMA cells were plated in 96-well poly-D-lysine treated plates (BD Bioscience, San Jose, CA). For treatment with test compounds, the media was replaced with corresponding low serum media (1% FBS) containing test compound at 1.1, 0.37, 0.12, 0.041, 0.014, 0.005, 0.0014, 0.0005 μM or DMSO control (0.1%). Cells were incubated with compound for 1.5 hr at 37° C. After compound treatment, the media was removed and cells were lysed for 30 min on ice in complete MSD lysis buffer (prepared using MSD base lysis buffer (Meso-Scale Discovery) supplemented with cOmplete, EDTA-free Protease inhibitor cocktail (Roche), Phosphatase Inhibitor Cocktails 2 and 3 (Sigma-Aldrich), and 1 mM PMSF (Sigma-Aldrich)). Lysates were stored at −70° C. until further analysis.
HER2 signaling was evaluated using phospho (Tyr1248)/total ErbB2 whole cell lysate MSD plates (Meso-Scale Discovery, Gaithersburg, MD). The phospho HER2 signal was normalized to total HER2 for each sample; results are reported as % DMSO control. The normalized data was fitted using a sigmoidal curve analysis program (Graph Pad Prism version 6) with variable Hill slope to determine EC50 values.
The HER2 signaling results are provided in Table 4, under columns titled “BT474-pHER2 EC50”, “N87-pHER2 EC50”, and “NCI-H1781-pHER2 EC50”. […]

Sequence of HER2YVMA (P04626 with tags, fused parts or gaps INS775YVMA): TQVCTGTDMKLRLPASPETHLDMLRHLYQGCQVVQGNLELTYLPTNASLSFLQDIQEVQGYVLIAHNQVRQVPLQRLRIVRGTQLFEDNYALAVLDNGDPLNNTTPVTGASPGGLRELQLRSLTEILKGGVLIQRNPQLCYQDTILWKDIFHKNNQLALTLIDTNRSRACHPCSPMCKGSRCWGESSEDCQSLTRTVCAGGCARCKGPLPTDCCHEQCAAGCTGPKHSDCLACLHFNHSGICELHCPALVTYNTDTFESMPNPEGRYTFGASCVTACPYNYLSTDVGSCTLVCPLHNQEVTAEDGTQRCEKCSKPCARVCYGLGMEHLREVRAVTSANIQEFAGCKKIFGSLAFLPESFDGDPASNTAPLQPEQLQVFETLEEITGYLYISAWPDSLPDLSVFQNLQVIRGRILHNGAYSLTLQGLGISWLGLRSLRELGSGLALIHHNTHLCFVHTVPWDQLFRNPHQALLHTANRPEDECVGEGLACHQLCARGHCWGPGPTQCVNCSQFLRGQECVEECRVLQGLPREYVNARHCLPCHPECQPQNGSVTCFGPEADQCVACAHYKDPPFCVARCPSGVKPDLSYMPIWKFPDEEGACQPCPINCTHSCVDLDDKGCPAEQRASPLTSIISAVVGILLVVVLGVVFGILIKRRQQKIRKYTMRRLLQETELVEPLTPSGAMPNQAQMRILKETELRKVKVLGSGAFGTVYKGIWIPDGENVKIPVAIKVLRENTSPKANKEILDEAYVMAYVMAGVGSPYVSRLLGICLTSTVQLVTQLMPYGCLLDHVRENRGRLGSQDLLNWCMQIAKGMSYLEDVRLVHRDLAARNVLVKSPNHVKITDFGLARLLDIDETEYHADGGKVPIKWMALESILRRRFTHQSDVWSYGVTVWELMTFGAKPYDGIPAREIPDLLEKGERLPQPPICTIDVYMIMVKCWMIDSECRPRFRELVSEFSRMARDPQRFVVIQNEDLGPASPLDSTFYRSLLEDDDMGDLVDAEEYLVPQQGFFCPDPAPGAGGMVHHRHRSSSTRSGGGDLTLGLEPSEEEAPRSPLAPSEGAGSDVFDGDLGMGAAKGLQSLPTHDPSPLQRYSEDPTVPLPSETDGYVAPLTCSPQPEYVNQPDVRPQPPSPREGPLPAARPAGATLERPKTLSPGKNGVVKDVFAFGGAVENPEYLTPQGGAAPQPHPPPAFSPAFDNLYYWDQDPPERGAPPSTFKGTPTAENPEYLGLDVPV

Cc1cc(Nc2ncnc3sc4c(c23)CCN(C(=O)/C=C/CN(C)C)C4)ccc1Oc1ccc2scnc2c1 [Compound 107, (E)-1-(4-((4-(benzo[d]thiazol-5-yloxy)-3-methylphenyl)amino)-5,8-dihydropyrido[4′,3′:4,5]thieno[2,3-d]pyrimidin-7(6H)-yl)-4-(dimethylamino)but-2-en-1-one]
EC50: < 100 nM

Cc1ccc(Oc2ccc(Nc3ncnc4sc5c(c34)CN(C(=O)/C=C/CN(C)C)CC5)cc2C)cn1 [Compound 108, (E)-4-(Dimethylamino)-1-(4-((3-methyl-4-((6-methylpyridin-3-yl)oxy)phenyl)amino)-7,8-dihydropyrido[3′,4′:4,5]thieno[2,3-d]pyrimidin-6(5H)-yl)but-2-en-1-one]
EC50: < 100 nM

Cc1cc(Nc2ncnc3sc4c(c23)CCN(C(=O)/C=C/CN(C)C)C4)ccc1Oc1ccc2nccn2c1 [Compound 109, (E)-4-(dimethylamino)-1-(4-((4-(imidazo[1,2-a]pyridin-6-yloxy)-3-methylphenyl)amino)-5,6-dihydropyrido[4′,3′:4,5]thieno[2,3-d]pyrimidin-7(8H)-yl)but-2-en-1-one]
EC50: < 100 nM

Cc1cn2ccc(Oc3ccc(Nc4ncnc5sc6c(c45)CCN(C(=O)/C=C/CN(C)C)C6)cc3C)cc2n1 [Compound 110, (E)-4-(dimethylamino)-1-(4-((3-methyl-4-((2-methylimidazo[1,2-a]pyridin-7-yl)oxy)phenyl)amino)-5,8-dihydropyrido[4′,3′:4,5]thieno[2,3-d]pyrimidin-7(6H)-yl)but-2-en-1-one]
EC50: 100 to 350 nM

Cc1cc(Nc2ncnc3sc4c(c23)CN(C(=O)/C=C/CN(C)C)C4)ccc1Oc1ccc2ncnn2c1 [Compound 111, (E)-1-(4-((4-([1,2,4]Triazolo[1,5-a]pyridin-6-yloxy)-3-methylphenyl)amino)-5H-pyrrolo[3′,4′:4,5]thieno[2,3-d]pyrimidin-6(7H)-yl)-4-(dimethylamino)but-2-en-1-one]
EC50: 100 to 350 nM

Cc1ccc(Oc2ccc(Nc3ncnc4sc5c(c34)CCN(C(=O)/C=C/CN3CCC[C@H](n4cccn4)C3)C5)cc2C)cn1 [Compound 112]
EC50: < 100 nM

Cc1ccc(Oc2ccc(Nc3ncnc4sc5c(c34)CCN(C(=O)/C=C/CN3CCCC(c4nccs4)C3)C5)cc2C)cn1 (centres unmarked) [Compound 113]
EC50: < 100 nM

Cc1ccc(Oc2ccc(Nc3ncnc4sc5c(c34)CCN(C(=O)/C=C/CN3CCC(O)C(C)(C)C3)C5)cc2C)cn1 (centres unmarked) [Compound 114]
EC50: < 100 nM

Cc1ccc(Oc2ccc(Nc3ncnc4sc5c(c34)CCN(C(=O)/C=C/CN3CCCC34CCC4)C5)cc2C)cn1 [Compound 115]
EC50: < 100 nM

Cc1ccc(Oc2ccc(Nc3ncnc4sc5c(c34)CCN(C(=O)/C=C/CN3CC(C)OC(C)C3C)C5)cc2C)cn1 (centres unmarked) [Compound 117]
EC50: < 100 nM

Cc1ccc(Oc2ccc(Nc3ncnc4sc5c(c34)CCN(C(=O)/C=C/CN3CC4CC4(CO)C3)C5)cc2C)cn1 (centres unmarked) [Compound 118]
EC50: < 100 nM

Cc1ccc(Oc2ccc(Nc3ncnc4sc5c(c34)CCN(C(=O)/C=C/CN3CCCCC3(C)CO)C5)cc2C)cn1 (centres unmarked) [Compound 119]
EC50: < 100 nM

Cc1ccc(Oc2ccc(Nc3ncnc4sc5c(c34)CCN(C(=O)/C=C/CN3C[C@H]4C[C@@H]3CC4C#N)C5)cc2C)cn1 (some centres unmarked) [Compound 120]
EC50: < 100 nM

Cc1ccc(Oc2ccc(Nc3ncnc4sc5c(c34)CCN(C(=O)/C=C/CN3CC(C)(C)OC(C)(C)C3)C5)cc2C)cn1 [Compound 121]
EC50: < 100 nM

CC[C@H](NC/C=C/C(=O)N1CCc2c(sc3ncnc(Nc4ccc(Oc5ccc(C)nc5)c(C)c4)c23)C1)C(F)(F)F [Compound 122]
EC50: < 100 nM

Cc1ccc(Oc2ccc(Nc3ncnc4sc5c(c34)CCN(C(=O)/C=C/CN3CC4(CCCC4)C3)C5)cc2C)cn1 [Compound 123]
EC50: < 100 nM

Cc1ccc(Oc2ccc(Nc3ncnc4sc5c(c34)CCN(C(=O)/C=C/CN3CC[C@H](F)C3)C5)cc2C)cn1 [Compound 124]
EC50: < 100 nM

Cc1cc(Nc2ncnc3sc4c(c23)CCN(C(=O)/C=C/CN(C)C)C4)ccc1Oc1ccn2ccnc2c1 [Compound 126, (E)-4-(dimethylamino)-1-(4-((4-(imidazo[1,2-a]pyridin-7-yloxy)-3-methylphenyl)amino)-5,8-dihydropyrido[4′,3′:4,5]thieno[2,3-d]pyrimidin-7(6H)-yl)but-2-en-1-one]
EC50: < 100 nM

Cc1nc2cc(Oc3ccc(Nc4ncnc5sc6c(c45)CCN(C(=O)/C=C/CN(C)C)C6)cc3C)ccn2n1 [Compound 127, (E)-4-(dimethylamino)-1-(4-((3-methyl-4-((2-methyl-[1,2,4]triazolo[1,5-a]pyridin-7-yl)oxy)phenyl)amino)-5,6-dihydropyrido[4′,3′:4,5]thieno[2,3-d]pyrimidin-7(8H)-yl)but-2-en-1-one]
EC50: < 100 nM

COc1ccc(Oc2ccc(Nc3ncnc4sc5c(c34)CN(C(=O)/C=C/CN(C)C)C5)cc2C)cn1 [Compound 128, (E)-4-(dimethylamino)-1-(4-((4-((6-methoxypyridin-3-yl)oxy)-3-methylphenyl)amino)-5,7-dihydro-6H-pyrrolo[3′,4′:4,5]thieno[2,3-d]pyrimidin-6-yl)but-2-en-1-one]
EC50: < 100 nM

Cc1ccc(Oc2ccc(Nc3ncnc4sc5c(c34)CN(C(=O)/C=C/CN(C)C)C5)cc2Cl)cn1 [Compound 129, (E)-1-(4-((3-Chloro-4-((6-methylpyridin-3-yl)oxy)phenyl)amino)-5H-pyrrolo[3′,4′:4,5]thieno[2,3-d]pyrimidin-6(7H)-yl)-4-(dimethylamino)but-2-en-1-one]
EC50: < 100 nM

Cc1cc(Nc2ncnc3sc4c(c23)CN(C(=O)/C=C/CN(C)C)C4)ccc1Oc1ccn2ncnc2c1 [Compound 130, (E)-1-(4-((4-([1,2,4]Triazolo[1,5-a]pyridin-7-yloxy)-3-methylphenyl)amino)-5H-pyrrolo[3′,4′:4,5]thieno[2,3-d]pyrimidin-6(7H)-yl)-4-(dimethylamino)but-2-en-1-one]
EC50: < 100 nM

CCN(CC)C/C=C/C(=O)N1CCc2c(sc3ncnc(Nc4ccc(Oc5ccc(C)nc5)c(C)c4)c23)C1 [Compound 131]
EC50: < 100 nM

Cc1ccc(Oc2ccc(Nc3ncnc4sc5c(c34)CCN(C(=O)/C=C/CN3CC[C@@H](CO)C3)C5)cc2C)cn1 [Compound 132]
EC50: < 100 nM

Cc1ccc(Oc2ccc(Nc3ncnc4sc5c(c34)CCN(C(=O)/C=C/CN3CC[C@H](CO)C3)C5)cc2C)cn1 [Compound 133]
EC50: < 100 nM

Cc1ccc(Oc2ccc(Nc3ncnc4sc5c(c34)CCN(C(=O)/C=C/CN3CC(CO)(CO)C3)C5)cc2C)cn1 [Compound 134]
EC50: 100 to 350 nM

Cc1ccc(Oc2ccc(Nc3ncnc4sc5c(c34)CCN(C(=O)/C=C/CN3CCC(CO)(CO)CC3)C5)cc2C)cn1 [Compound 135]
EC50: 100 to 350 nM

Cc1ccc(Oc2ccc(Nc3ncnc4sc5c(c34)CCN(C(=O)/C=C/CN3CCO[C@H](CO)C3)C5)cc2C)cn1 [Compound 136]
EC50: < 100 nM

CCN(CC)C/C=C/C(=O)N1CCc2c(sc3ncnc(Nc4ccc(Oc5ccc(OC)nc5)c(C)c4)c23)C1 [Compound 137]
EC50: < 100 nM
